Assay results: PMC8304610, “Discovery of Novel 2,4-Dianilinopyrimidine Derivatives Containing 4-(Morpholinomethyl)phenyl and N-Substituted Benzamides as Potential FAK Inhibitors and Anticancer Agents” (Molecules, 2021)

Tests used:
FAK kinase = biological target: T1, FAK kinase (Homo sapiens, UniProt Q05397); assay: ADP-Glo kinase enzymatic assay; type: biochemical; settings: mean ± SD of three independent experiments
T1 construct: purchased Promega Corporation V9301
Method: The ADP-Glo™ Kinase Assay Kit and FAK Kinase Enzyme (Catalog. V9301) were purchased from Promega Corporation (Madison, WI, USA). The experiments were performed according to the detailed and complete protocols of the manufacturer. Briefly, the concentration of FAK determined by optimization experiments was 0.1 μg/μL. Suitable concentration gradients from 1.6 to 1000 nM were set for all the tested compounds. A kinase reaction buffer, a substrate/ATP mixture, and a FAK solution were prepared right before use. The 5 μL kinase reaction consisted of 1 μL of compound solution, 2 μL of substrate/ATP mixture, and 2 μL of FAK solution. The control without enzyme was provided by 3 μL of kinase reaction buffer and 2 μL of substrate/ATP mixture. The negative control was prepared using 1 μL of kinase reaction buffer instead of a compound solution. The kinase reactions were added to a 384-well plate and incubated at room temperature for 60 min, then 5 μL of ADP-Glo™ Reagent was added to stop the kinase reaction and deplete the unconsumed ATP, and incubated at room temperature for 40 min. After adding 10 μL of Kinase Detection Reagent, the plate was incubated at room temperature for 30 min and then luminescence was recorded (integration time 0.5–1 s) on a TriStar® LB942 Multimode Microplate Reader (BERTHOLD TECHNOLOGIES GmbH & Co. KG., Bad Wildbad, Germany). Curve fitting and data presentations were performed using GraphPad Prism version 8.0.

[1] = test system: H1975 non-small cell lung cancer (NSCLC) cells; assay: CCK-8 cell viability assay, H1975; type: cell-based; settings: Homo sapiens, NCI-H1975, CCK-8, 72 h, mean ± SD of three experiments, read-out: Antiproliferative Activity IC50, H1975
Method: (§1) The H1975 human NSCLC cell line was obtained from ATCC. A431 human epithelial carcinoma and HBE human bronchial epithelial cell lines were kind gifts from Fuheng Biological Company Ltd. (Shanghai, China) and YuXi Biotech Company (Jiangsu, China), respectively. The cells were maintained in RPMI 1640 or DMEM (Gibco®, Thermo Fisher Scientific Inc., Waltham, MA, USA) containing 10% fetal bovine serum (FBS, Gibco®) and 1% penicillin-streptomycin (Beyotime Company, Shanghai, China) at 37 °C in a 5% CO2 incubator.
(§2) A total of 3000 cells of H1975 or HBE and 5000 cells of A431 were seeded for each well into a 96-well plate and cultured in 10% FBS respective growth medium overnight. Various concentrations (0–20 μM) of each compound were then added in triplicate to the cells. After 72 h of incubation, 10 μL of CCK-8 solution (5.0 mg/mL, Biotool Company, Kirchberg, Switzerland) was added to each well and the cells continued to culture for 4 h. The optical density (OD) was determined at 450 nm with a microplate reader (Thermo Fisher Scientific, Waltham, MA, USA). IC50 values were calculated employing GraphPad Prism version 8.0.

[2] = test system: A431 human epithelial carcinoma cells; assay: CCK-8 cell viability assay, A431; type: cell-based; settings: A-431, CCK-8, 72 h, mean ± SD of three experiments, read-out: Antiproliferative Activity IC50, A431
Method: as §1, §2

[3] = test system: normal human bronchial epithelial cells (HBE); assay: CCK-8 cellular selectivity assay, HBE; type: cell-based
Method: as §1, §2

H1975 cells [4] = assay: Annexin V-FITC/PI flow cytometry apoptosis assay; type: cell-based, human; settings: H1975, 0.1, 0.5, 1 μM, 48 h
Method: (§3) H1975 cells were seeded at a density of 1 × 10^5 cells/well into 6-well plates for 24 h and then exposed to different concentrations of inhibitors for 48 h. The cells were harvested. (1) The cells were stained with Annexin V-FITC (5 µL)/propidium iodide (5 µL), and the samples were detected and flow cytometry (Becton-Dickinson, Franklin Lakes, NJ, USA) was performed to quantify the number of apoptotic cells. (2) The cells were stained with propidium iodide (PI) in the dark for 30 min, and then analyzed for cell cycle distribution by the flow cytometry assay.

H1975 cells [5] = assay: Cell cycle analysis by PI flow cytometry; type: cell-based, human; settings: 48 h
Method: as §3

H1975 cells [6] = assay: Scratch (cell migration) assay; type: cell-based, human; settings: H1975, 0.1, 0.5, and 1 μM, 24 h
Method: H1975 cells were seeded in 6-well plates and incubated for 12 h. When cells were grown to 90–100% confluency in a monolayer, wounds were generated using a pipette tip. […] The images were captured to record the status of cells near the scratch lines at the beginning and after 12 and 24 h.

H1975 cells [7] = assay: AO/EB staining assay; type: cell-based, human; settings: H1975, 0.1, 0.5, and 1 μM
Method: H1975 cells at a density of 1 × 10^5 cells/well in 6-well plates were incubated for 24 h. After discarding the original culture medium, different concentrations of inhibitors were used. The cells were incubated for 48 h and then washed with phosphate-buffered saline (PBS) three times. Cells were subsequently incubated in the dye mix containing 1.0 µg/mL of AO and 1.0 µg/mL of EB in PBS at 37 °C for 5 min, and then washed with PBS. The apoptotic, necrotic, and live cells were examined under the fluorescent inverted microscope (OLYMPUS, Tokyo, Japan).

T1 sequence (Q05397 393-698 limits assumed): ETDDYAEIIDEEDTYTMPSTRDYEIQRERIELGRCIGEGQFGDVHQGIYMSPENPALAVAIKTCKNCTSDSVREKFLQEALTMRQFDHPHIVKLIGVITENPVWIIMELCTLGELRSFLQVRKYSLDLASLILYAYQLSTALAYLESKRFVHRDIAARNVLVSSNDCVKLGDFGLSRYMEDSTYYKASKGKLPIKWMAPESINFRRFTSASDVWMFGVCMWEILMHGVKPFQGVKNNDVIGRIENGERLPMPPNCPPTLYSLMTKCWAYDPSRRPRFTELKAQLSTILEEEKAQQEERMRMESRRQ

O=C(NCCO)c1ccccc1Nc1nc(Nc2ccc(CN3CCOCC3)cc2)ncc1Cl [Compound 8a, 2-((5-Chloro-2-((4-(morpholinomethyl)phenyl)amino)pyrimidin-4-yl)amino)-N-(2-hydroxyethyl)benzamide]
IC50 (FAK kinase): 47 ± 6 nM
IC50 [1]: 44 ± 11 nM
IC50 [2]: 119 ± 36 nM
IC50 ([3]; Homo sapiens, Epithelial cell, HBE normal cells, CCK-8, 72 h, mean ± SD of three experiments, read-out: Antiproliferative Activity IC50, HBE): 1040 ± 266 nM
SI Values (selectivity index) ([3]; IC50 for HBE cell line/IC50 for H1975 cell line): 24
Apoptosis induction (in words) (H1975 cells [4]): substantially increased the extent of apoptosis in H1975 cells in a dose-dependent manner
%G1 (G0/G1 phase) cells (H1975 cells [5]; H1975, 1.0 μM): 39.06%
%G2 (G2/M phase) cells (H1975 cells [5]; H1975, 1.0 μM): 37.29%
%S phase cells (H1975 cells [5]; H1975, 1.0 μM): 23.65%
Cell cycle arrest (in words) (H1975 cells [5]; H1975, 0.1, 0.5, and 1 μM): induced cell cycle arrest in S/G2 phase in a dose-dependent manner
Cell migration (in words) (H1975 cells [6]): reduced migration distances
Apoptotic morphology (in words) (H1975 cells [7]): exhibited certain morphological phenomena characteristic of apoptosis
